We go through eleven compounds from patent US12629378B2, “Treatment of infantile hemangioma” (Arkayli Biopharma Inc., priority 2019, dated 2026).

Converted amounts (≈) assume the structure as drawn.

For series [1] the following is noted: cited from earlier work; for Half-Life: in vivo; for distribution half-life: delivered intravenously.
Series [2] in a line: Esmolol solubility in various excipients. The format is physicochemical. The source says: Knowing the solubility of a drug in different excipients and chemical enhancers is important in optimizing the saturation solubility of the drug in topical and transdermal formulations. Here below is a table (Table 1) showing the solubility of esmolol in several excipients and chemical enhancers. The solubility of Esmolol was higher in hydrophilic excipients and lower in the more lipophilic excipients. Several of these compounds were used to prepare the formulations in Example 2, such as the co-enhancing system of oleyl alcohol and propylene glycol.

For series [3] the following is noted: cited from earlier work.
The conditions of series [4]: children, after an oral dose; cited from earlier work.
For series [5], the system named is beta adrenergic receptors. The settings on record: times more potent; cited from earlier work.
For series [6] the following is noted: drop (0.05 mL) of timolol 0.5% solution to the eye of an adult; cited from earlier work.
For series [7] the following is noted: children with pediatric glaucoma, intraocular; cited from earlier work.
The conditions of series [8]: cited from earlier work. This is another data set of the same source.
The conditions of series [9]: adults; cited from earlier work.
The test system of series [10] is beta adrenergic receptors. The note with it: fraction of the potency of Esmolol; cited from earlier work.

A word on the LogP: it is the decadic logarithm of the partition coefficient of the neutral form, usually between octanol and water.

In the case of `CC(C)(C)NCC(O)COc1cccc2c1CCC(=O)N2` (stereo not shown) [Corteolol], the Half-Life in series [1] was 6 to 8 h.

Turning to `COC(=O)CCc1ccc(OCC(O)CNC(C)C)cc1` (stereo not shown) [Esmolol, methyl 3-[4-[2-hydroxy-3-(propan-2-ylamino)propoxy]phenyl]propanoate], the “Sat. Conc.” value in [2] (Castor Oil (CO)) was 23.4 mg/mL; in series [2] (Cotton seed oil (CSO)), 101.9 mg/mL; in [2] (DMSO), 592.1 mg/mL; in [2] (Dipropylene Glycol) it was 257.6 mg/mL; in series [2] (Ethanol) it was 310.4 mg/mL; in series [2] (Glyceryl monooleate (GMO)) it was 157.3 mg/mL. The “Sat. Conc.” value in series [2] (Isopropyl myristate (IPM)) came out at 196.2 mg/mL; in series [2] (Lauroglycol FCC (LG)), 122.2 mg/mL; in [2] (Oleic acid (OA)) it was 56.9 mg/mL; in series [2] (Oleyl Alcohol), 112.2 mg/mL; in series [2] (Olive Oil (OO)) it was 58.1 mg/mL; in series [2] (PEG-400), 248.6 mg/mL. Further, the “Sat. Conc.” value came out at 450.7 mg/mL in series [2] (Propylene Glycol), 56.6 mg/mL in series [2] (Sesame oil (SO)) and 344.5 mg/mL in [2] (Transcutol P). For the same compound, the solubility thermodynamic in series [2] (water, read-out: Sat. Conc.) stood at 704 mg/mL (≈ 2380 mM). The distribution half-life entry in series [1] is given as “about 2 minutes”. Also, in series [1], the Half-Life is 0.15 h.

Turning to `CC1(C)OC[C@@H](COC(=O)CCc2ccc(OC[C@@H](O)CNCCNC(=O)N3CCOCC3)cc2)O1` [Landiolol, [(4S)-2,2-dimethyl-1,3-dioxolan-4-yl]methyl 3-[4-[(2S)-2-hydroxy-3-[2-(morpholine-4-carbonylamino)ethylamino]propoxy]phenyl]propanoate], in series [3], the log partition coefficient (LogP) is listed as 0.44. Moreover, in series [1], the distribution half-life entry is on record as “about 2 minutes” and the Half-Life was 0.05 to 0.1 h.

`COCCc1ccc(OCC(O)CNC(C)C)cc1` (stereo not shown) [Metoprolol]: the Half-Life in [1] was 3 to 7 h.

As for `CC(C)(C)NCC(O)COc1cccc2c1CC(O)C(O)C2` (stereo not shown) [Nadolol], the LogP in series [3] was 1. Moreover, the Half-Life in [1] is 14 to 25 h.

`C=CCOc1ccccc1OCC(O)CNC(C)C` (stereo not shown) [Oxprenolol]: the LogP in series [3] is on record as 2.1. Moreover, the Half-Life in series [1] was 1 to 2 h.

On to `CC(C)(C)NC[C@H](O)COc1ccccc1C1CCCC1` [Penbutolol], for which, in [3], the log partition coefficient (LogP) was 4.15. Moreover, in series [1], the Half-Life is 20 h.

Turning to `CC(C)NCC(O)COc1cccc2[nH]ccc12` (stereo not shown) [Pindolol], the lipophilicity (LogP) in series [3] is on record as 1.75. The Half-Life in [1] was 3 to 4 h.

Turning to `CC(C)NCC(O)COc1cccc2ccccc12` (stereo not shown) [Propranolol], the Half-Life in [1] is 4 to 5 h. Further, in series [4], the “time of peak effect on blood pressure and heart rate” value is recorded as “around 2 hours”.

Take `CC(C)(C)NC[C@H](O)COc1nsnc1N1CCOCC1` [Timolol]: in series [3], the lipophilicity (LogP) is on record as 1.4. For the same compound, the Half-Life in series [1] is 2.5 to 5 h. Further, the “potency compared with propranolol” value in series [5] is 4-10 times. In [6], the “fraction of each drop systemically absorbed through the ocular mucosa” value is reported as “approximately 80%”. For the same compound, in series [7], the “systemic adverse effects (bradycardia, hypoglycemia, bronchial hyperreactivity), share of children” value is on record as 3-4%. In addition, the “plasma samples in which timolol was detected” value in series [8] (86/92 samples, applied to skin over IH) is 93%. In series [8] (applied to skin over IH), the “plasma level normalized for dose, mean” value was 24.1 ± 62.7 ng/mL/mg; the “plasma level normalized for dose, median” value was 3 ng/mL/mg; the “plasma level normalized for dose, range” value is 0.06 to 424 ng/mL/mg; the “plasma level, median” value is 0.98 ng/mL. In series [8] (applied to skin over IH), the “plasma level, range” value is 0.03 to 106 ng/mL and the “samples with plasma levels >0.2 ng/mL” value is given as 80%. The “samples between 0.020-0.2 ng/mL” value in series [8] (of 86 samples) is listed as 12/86. In series [8] (similar to intravenous administration), the “subjects with plasma levels ≥10 ng/mL” value was “Ten”. The “plasma concentration demonstrated to have measurable systemic beta-blocking activity” value in series [9] was 0.2 ng/mL.

Take `CC(C)NCC(O)COc1ccc(CCC(=O)O)cc1` (stereo not shown) [inactive metabolite]: the “potency relative to Esmolol” value in [10] is 1/1500.
